Earlier results in EP2654723B1, “Solid pharmaceutical dosage forms comprising tadalafil and methods of preparation thereof” (Zaklady Farmaceutyczne Polpharma SA, priority 2010, dated 2012).

Experiments:
[1] = at 37°C

- experimental water solubility [1]: about 2 µg/mL
- permeability: low permeability
- BCS class (because of low solubility and low permeability): BCS class IV
SMILES: CN1CC(=O)N2[C@H](c3ccc4c(c3)OCO4)c3[nH]c4ccccc4c3C[C@@H]2C1=O [Tadalafil, (6R-trans)-6-(1,3-benzodioxol-5-yl)-2,3,6,7,12,12a-hexahydro-2-methyl-pyrazino [1', 2':1,6] pyrido[3,4-b]indole-1,4-dione]
